{
  "source": "ChEMBL document CHEMBL1201862",
  "about": "“PubChem BioAssay data set” (2004)",
  "key": {"[1]": {"tested_on": "Vero", "experiment": "cells", "format": "functional, cell-based", "conditions": "Chlorocebus sabaeus"}, "[2]": {"tested_on": "Vero", "experiment": "cells", "format": "functional", "conditions": "Chlorocebus sabaeus"}, "[3]": {"target": "Large T antigen (Simian virus 40, UniProt P03070)", "sequence (P03070 whole entry)": "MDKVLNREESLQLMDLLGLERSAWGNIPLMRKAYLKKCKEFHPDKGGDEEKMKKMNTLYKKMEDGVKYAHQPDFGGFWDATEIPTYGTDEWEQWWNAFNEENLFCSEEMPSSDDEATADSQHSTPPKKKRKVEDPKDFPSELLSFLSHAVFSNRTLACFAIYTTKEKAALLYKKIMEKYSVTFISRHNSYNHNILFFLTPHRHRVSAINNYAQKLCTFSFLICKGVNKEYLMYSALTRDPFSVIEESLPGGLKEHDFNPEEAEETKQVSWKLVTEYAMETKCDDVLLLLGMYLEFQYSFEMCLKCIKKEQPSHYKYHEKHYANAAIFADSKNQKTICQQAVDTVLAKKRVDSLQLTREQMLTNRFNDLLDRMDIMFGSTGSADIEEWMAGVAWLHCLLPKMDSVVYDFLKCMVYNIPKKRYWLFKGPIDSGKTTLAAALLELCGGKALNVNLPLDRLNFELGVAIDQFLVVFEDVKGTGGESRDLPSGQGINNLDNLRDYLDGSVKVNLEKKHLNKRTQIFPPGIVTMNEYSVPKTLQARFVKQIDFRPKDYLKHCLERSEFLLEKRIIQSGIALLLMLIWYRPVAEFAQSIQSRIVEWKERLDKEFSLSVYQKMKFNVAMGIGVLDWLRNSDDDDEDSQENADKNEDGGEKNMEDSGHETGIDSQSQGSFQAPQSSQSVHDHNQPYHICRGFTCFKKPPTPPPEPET", "format": "functional, Betapolyomavirus macacae"}, "[4]": {"target": "T1, Leucine aminopeptidase (Plasmodium falciparum 3D7, UniProt Q8IL11)", "T1 sequence (Q8IL11 whole entry)": "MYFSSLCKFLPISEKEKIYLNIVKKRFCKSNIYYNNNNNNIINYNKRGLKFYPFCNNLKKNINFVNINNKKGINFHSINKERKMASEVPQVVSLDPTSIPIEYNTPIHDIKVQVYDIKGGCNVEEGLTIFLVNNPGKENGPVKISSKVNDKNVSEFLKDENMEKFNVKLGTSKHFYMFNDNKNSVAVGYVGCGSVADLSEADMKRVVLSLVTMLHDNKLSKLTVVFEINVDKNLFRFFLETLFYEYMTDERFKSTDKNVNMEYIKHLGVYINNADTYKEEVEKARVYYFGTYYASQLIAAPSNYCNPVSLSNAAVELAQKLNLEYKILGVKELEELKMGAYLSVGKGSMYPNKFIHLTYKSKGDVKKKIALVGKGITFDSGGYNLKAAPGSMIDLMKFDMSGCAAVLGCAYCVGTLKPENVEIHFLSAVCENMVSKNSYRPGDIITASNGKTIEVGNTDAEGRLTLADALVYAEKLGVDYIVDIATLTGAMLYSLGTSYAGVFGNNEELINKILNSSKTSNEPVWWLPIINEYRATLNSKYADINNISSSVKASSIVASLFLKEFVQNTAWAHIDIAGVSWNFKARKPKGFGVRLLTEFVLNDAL", "experiment": "P. falciparum M17LAP inhibitors, primary screen, biochemical, fluorogenic H-Leu-NHMec substrate, 1536-well (AID 1619)", "format": "functional"}, "[5]": {"experiment": "P. falciparum Dd2 growth inhibitors, dose response, SYBR Green, cherry-picked samples (AID 1159567)", "format": "functional, cell-based"}, "[6]": {"target": "T2, Protein skinhead-1 (Caenorhabditis elegans, UniProt P34707)", "T2 sequence (P34707 whole entry)": "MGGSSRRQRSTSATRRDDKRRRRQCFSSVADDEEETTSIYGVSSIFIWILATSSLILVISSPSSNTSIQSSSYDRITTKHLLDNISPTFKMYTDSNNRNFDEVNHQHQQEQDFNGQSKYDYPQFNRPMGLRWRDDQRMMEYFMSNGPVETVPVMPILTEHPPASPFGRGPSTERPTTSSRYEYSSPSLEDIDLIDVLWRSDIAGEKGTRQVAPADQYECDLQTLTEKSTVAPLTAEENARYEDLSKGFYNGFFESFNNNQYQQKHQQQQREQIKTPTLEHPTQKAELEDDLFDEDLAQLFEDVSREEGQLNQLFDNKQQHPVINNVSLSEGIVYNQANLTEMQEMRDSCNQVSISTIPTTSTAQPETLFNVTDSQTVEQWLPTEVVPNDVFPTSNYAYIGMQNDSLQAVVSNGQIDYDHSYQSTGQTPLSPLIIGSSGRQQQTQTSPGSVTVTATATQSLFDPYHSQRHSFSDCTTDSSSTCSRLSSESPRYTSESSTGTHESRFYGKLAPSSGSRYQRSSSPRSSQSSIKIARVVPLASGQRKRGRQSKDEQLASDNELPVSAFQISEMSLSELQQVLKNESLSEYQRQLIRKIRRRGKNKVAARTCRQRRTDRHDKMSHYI", "format": "functional"}, "[7]": {"experiment": "microbe, parasite or virus in culture", "format": "functional", "conditions": "Mycobacterium tuberculosis"}, "[8]": {"experiment": "HEp-2 cell cytotoxicity, dose response, cytotoxicity control for RSV inhibitor project, HTS (AID 2410)", "format": "functional", "conditions": "human respiratory syncytial virus"}, "[9]": {"target": "Induced myeloid leukemia cell differentiation protein Mcl-1 (Homo sapiens, UniProt Q07820)", "sequence (Q07820 whole entry)": "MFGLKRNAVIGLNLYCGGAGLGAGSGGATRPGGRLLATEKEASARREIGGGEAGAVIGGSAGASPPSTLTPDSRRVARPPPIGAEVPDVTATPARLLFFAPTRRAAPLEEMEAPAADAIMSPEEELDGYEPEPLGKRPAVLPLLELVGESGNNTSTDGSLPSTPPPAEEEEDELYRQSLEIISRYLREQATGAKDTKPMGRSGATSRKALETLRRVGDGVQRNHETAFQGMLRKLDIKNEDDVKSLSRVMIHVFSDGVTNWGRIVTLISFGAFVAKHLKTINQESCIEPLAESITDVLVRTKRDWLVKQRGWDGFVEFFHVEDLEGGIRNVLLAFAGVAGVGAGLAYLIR", "format": "functional"}},
  "note": "Active and inactive are the calls of the source.",
  "data": [
    {"smiles": "CC(=O)/C(C#N)=C1\\NC(=O)C(Cc2ccc(C)c(C)c2)S1", "note": "(stereo unspecified)", "values": [
      {"measurement": "IC50", "setting": "[1]", "result": "5.04 µM (active)"},
      {"measurement": "CC50", "setting": "[2]", "result": "> 25 µM (active)"}
    ]},
    {"smiles": "O=C(NCc1ccco1)C1CC(=O)N(c2ccc(O)cc2)C1", "note": "(stereo unspecified)", "values": [
      {"measurement": "IC50", "setting": "[3]", "result": "19.8 µM (active)"}
    ]},
    {"smiles": "Cc1c(Nc2nc3ccccc3nc2NS(=O)(=O)c2ccccc2)c(=O)n(-c2ccccc2)n1C", "values": [
      {"measurement": "IC50", "setting": "[4]", "result": "68.1 µM (active)"}
    ]},
    {"smiles": "CCCc1cn([C@H]2C[C@@H]3O[C@@H](CO)CC[C@@H]3O[C@@H]2CCc2ccc(-c3ccc(OC)cc3)cc2)nn1", "values": [
      {"measurement": "AC50", "setting": "[5]", "result": "6.63 µM (active)"}
    ]},
    {"smiles": "N#C/C(=C\\c1ccc(Cl)cc1Cl)c1n[nH]c(Cn2cncn2)n1", "values": [
      {"measurement": "IC50", "setting": "[6]", "result": "> 100 µM (inactive)"}
    ]},
    {"smiles": "O=C(Cc1nnc(O)c2ccccc12)OCc1c(Cl)cccc1Cl", "values": [
      {"measurement": "IC50", "setting": "[1]", "result": "8 µM (active)"}
    ]},
    {"smiles": "COc1ccc2c3c([nH]c2c1)[C@@H](CO)N(Cc1ccc(Cl)cc1)CC31CCN(Cc2nccs2)CC1", "values": [
      {"measurement": "AC50", "setting": "[5]", "result": "4.65 µM (active)"}
    ]},
    {"smiles": "CCc1ccc(/N=C\\C23c4ccccc4C(c4ccccc42)C2C(=O)N(c4ccc(OC)cc4)C(=O)C23)cc1", "note": "(stereo unspecified)", "values": [
      {"measurement": "CC50", "setting": "[7]", "result": "> 40 µM (active)"}
    ]},
    {"smiles": "CCN(c1ccccc1)S(=O)(=O)c1cccc(C(=O)Nc2ccc(C)cn2)c1", "values": [
      {"measurement": "CC50", "setting": "[8]", "result": "30.3 µM (active)"},
      {"measurement": "IC50", "setting": "[6]", "result": "> 100 µM (inactive)"}
    ]},
    {"smiles": "CCc1cc(/C(Cc2ccccn2)=N\\Nc2ccccc2)c(O)cc1O", "values": [
      {"measurement": "CC50", "setting": "[7]", "result": "> 40 µM (active)"}
    ]},
    {"smiles": "COc1ccc2c3c([nH]c2c1)[C@H](CO)N(Cc1ccccc1Cl)CC31CN(C(C)=O)C1", "values": [
      {"measurement": "AC50", "setting": "[5]", "result": "5.9 µM (active)"}
    ]},
    {"smiles": "CN(C)C(S)=Nc1ccc(N2CCOCC2)cc1", "values": [
      {"measurement": "IC50", "setting": "[3]", "result": "11 µM (active)"}
    ]},
    {"smiles": "CCn1c(SCC(=O)Nc2nc3ccc(C)cc3s2)nc2c(c1=O)SC(C)C2", "note": "(stereo unspecified)", "values": [
      {"measurement": "CC50", "setting": "[7]", "result": "> 40 µM (active)"}
    ]},
    {"smiles": "Nc1nc(O)c2c(n1)N=C1C(=C(O)c3ccccc31)C2c1cccc2ccccc12", "note": "(stereo unspecified)", "values": [
      {"measurement": "IC50", "setting": "[9]", "result": "3.73 µM (active)"}
    ]},
    {"smiles": "COc1cc(C=C(C(C)=O)C(C)=O)ccc1O", "values": [
      {"measurement": "IC50", "setting": "[3]", "result": "8.18 µM (active)"}
    ]},
    {"smiles": "Nc1nc2c(s1)C(=O)CC(c1ccccc1)C2", "note": "(stereo unspecified)", "values": [
      {"measurement": "IC50", "setting": "[4]", "result": "58.8 µM (active)"}
    ]},
    {"smiles": "CC(=O)c1ccc(OCCCC(=O)n2nnc3ccccc32)cc1", "values": [
      {"measurement": "IC50", "setting": "[4]", "result": "61.9 µM (active)"}
    ]},
    {"smiles": "N#CC1=C(N)N(c2ccc(F)cc2)C2=C(C1c1ccc(O)cc1)S(=O)(=O)CC2", "note": "(stereo unspecified)", "values": [
      {"measurement": "IC50", "setting": "[6]", "result": "> 100 µM (inactive)"}
    ]},
    {"smiles": "COc1ccc(OC)c(C(=O)C2COC(=O)C2)c1", "note": "(stereo unspecified)", "values": [
      {"measurement": "IC50", "setting": "[6]", "result": "> 100 µM (inactive)"}
    ]}
  ]
}
